We go through 2 compounds from patent US20240156971A1, “METHODS AND SORTILIN BINDING CONJUGATE COMPOUNDS FOR TARGETING CANCER STEM CELLS” (TRANSFERT PLUS, SOCIÉTÉ EN COMMANDITE, priority 2021, published 2024).

For one data set, the system named is hBCSC xenografts. Nature of the data set: Growth of hBCSC xenografts in mice. It is filed as in vivo. As to conditions: for growth of tumors originating from breast CSCs: weekly i.v., TH1902 at doses equivalent to 1, 1.25 or 1.5 the MTD of docetaxel, docetaxel 15 mg/kg (MTD). An excerpt: (§1) In vivo Assessment of Docetaxel and TH1902 Anti-Tumor Efficacy. Tumor xenografts were established by subcutaneous inoculation of 10^3 hBCSC cells, hOvCSC and hPCSC resuspended in […] of HBSS containing 50% Matrigel™, into the right flank of NCG triple immunodeficient female mice (Charles River, Saint-Constant QC) under light isoflurane anesthesia. Three days following implantation of either hBCSC or hOvCSCS, mice commenced receiving weekly treatment by intravenous bolus injections of vehicle (10% polysorbate-80, 5% dextrose, 0.04% formic acid pH 4.3), docetaxel (15 mg/kg (the MTD for this agent) or 3.75 mg/kg (¼ MTD for this agent), dissolved in 5% dextrose, 3.3% ethanol, 1.7% Tween™-80) or TH1902 (35 mg/kg or 8.75 mg/kg) dissolved in vehicle. Note that the two TH1902 and docetaxel concentrations contain equimolar amounts of docetaxel due to the two docetaxel moieties per TH1902 molecule. Tumor growth was measured using two-dimensional measurements taken with an electronic caliper, and tumor volume was calculated according to the following formula: tumor volume (mm^3)=π/6×length×width^2. Animal weights were measured three times per week with a precision of 10 mg.

For data set [1], the system named is MDA-MB-231/luciferase tumor xenografts. Nature of the data set: Cancer relapse in MDA-MB-231/luciferase xenograft mouse model of TNBC. The settings on record: treated at day 0, 7, 14 and 21; for cancer relapse at later time points (day 74): assessed up to day 74. In kind it is in vivo, mice. As to the method:
It was then assessed whether treatment with docetaxel or TH1902 could prevent cancer relapse using the MDA-MB-231/luciferase xenograft mouse model of TNBC. The MDA-MB-231 tumor cell has been reported to have cells with cancer stem cell (CSC)-like properties (Sleeboom et al., Int J Mol Sci. 2018 October; 19(10): 3047; Ghanbari et al., Int. J. Morphol., 34(4):1197-1202, 2016). Mice with MDA-MB-231/luciferase tumor xenografts were treated a day 0, 7, 14 and 21 with either vehicle (control), Docetaxel or TH1902 and tumor growth was assessed up to day 74.

For data set [2], the system named is hBCSCs. The data set can be described thus: Scratch (wound-healing) assay of hBCSC migration. In kind it is cell-based, human. As to conditions: 2 h treatment, 2 μM docetaxel or 1 μM TH1902; images at 24 and 48 h. As to the method:
Inhibition of hBCSC Migration by Test Articles. Cell migration experiments were carried out using the scratch (wound-healing) assay. Cells (2.8×10^5 cells /well) were plated in 6-well plates for 24 hours and then scratched using a sterile p200 pipette tip. Cells were washed with serum-free medium to remove the detached cells, then treated for 2 hours with serum-free medium containing vehicle (DMSO), 2 μM Docetaxel, or 1 μM TH1902. Cells were rinsed with complete media and incubated for 48 hours in a fresh complete media. Images were acquired, at 0, 24 and 48 hours after scratching, with an inverted microscope.

A further data set concerns MDA-MB-231/luc cells. Nature of the data set: Cell cycle analysis (G2/M) of MDA-MB-231/luc cells. In kind it is cell-based, human. As to conditions: MDA-MB-231 cells. How it is done:
(§2) Cell Cycle Analysis Following Treatment of hBCSC by Test Articles. hBCSCs (2.8×10^5 cells/well) and MDA-MB-231/luc cells (2.3×10^5 cells/well) were seeded in 6-well plates one day prior to treatment. To test the effects of Docetaxel and TH1902 on cell cycle phases, hBCSCs and MDA-MB-231/luc cells were treated for 2 hours in serum-free media with vehicle (DMSO), 4 μM docetaxel or 2 μM TH1902 (equimolar of docetaxel), rinsed with complete media and incubated in fresh complete media for 22 and 48 hours. For the experiments with the P-gp inhibitors, hBCSCs were first pre-treated for 30 minutes in serum-free media with vehicle (DMSO), or 10 μM cyclosporine A or PSC-833 (P-gp inhibitors). Next, cells were treated for 2 hours with 4 μM docetaxel or 2 μM TH1902 in the continued presence or absence of the P-gp inhibitors before being rinsed and incubated in fresh complete media in the continued presence or absence of the P-gp inhibitors. Cells were then incubated for 22 and 48 hours. In both assays, following the incubation, cells were detached with trypsin, fixed with ice-cold 70% EtOH and kept overnight at 4° C. Cells were washed once with PBS, after which they were stained for 30 minutes at room temperature with FxCycle™ PI/RNase Staining Solution (Thermo Scientific, Waltham, MA; #F10797). Cells were finally subjected to cell cycle analysis using a BD Accuri™ C6 flow cytometer.

The subject of the next data set is pancreatic CSCs. Nature of the data set: Growth of tumors originating from pancreatic CSCs in mice. The settings on record: TH1902 at doses equivalent to 1, 1.25 or 1.5 the MTD of docetaxel; docetaxel 15 mg/kg (MTD). In kind it is in vivo.
Description: as §1

In another data set the test system is ovarian hOCSC xenografts. The data set can be described thus: hOCSC xenografts treated with single agents or combined with carboplatin. In kind it is in vivo, mice. The settings on record: for inhibition of tumor growth, single agent: docetaxel 10 mg/kg, TH1902 23 mg/kg, paclitaxel 10 mg/kg, carboplatin 40 mg/kg, day 18. How it is done: Mice bearing ovarian hOCSC xenografts were treated with vehicle, docetaxel, paclitaxel, TH1902 or carboplatin, and other groups of mice were administered carboplatin in combination with either docetaxel, paclitaxel or TH1902. To minimize the risk of side effects resulting from combining treatments, the dosages used for each drug were reduced to the following: docetaxel 10 mg/kg; TH1902 23 mg/kg (equivalent to the docetaxel dosage); paclitaxel 10 mg/kg; carboplatin 40 mg/kg (unchanged).

For data set [3], the system named is hBCSCs. Nature of the data set: Cell cycle analysis (G2/M) of hBCSCs with or without P-gp inhibitors. In kind it is cell-based, human. How it is done: as §2

Square brackets hold non-standard residues; d marks the D form. Ends that are not written are not given here. Nle = CCCC[C@H](N)C(=O)O

For the compound `CC(=O)O[C@@]12CO[C@@H]1C[C@H](O)[C@@]1(C)C(=O)[C@H](O)C3=C(C)[C@@H](OC(=O)[C@H](O)[C@@H](NC(=O)OC(C)(C)C)c4ccccc4)C[C@@](O)([C@@H](OC(=O)c4ccccc4)[C@H]21)C3(C)C` [docetaxel, reference compound], the “growth of tumors originating from breast CSCs” value in the data set on hBCSC xenografts is given as “no significant reduction of tumor growth”. In addition, in data set [1], the “tumor growth during and shortly after administration” value is on record as “reduction in tumor growth”; the “cancer relapse at later time points (day 74)” value was “tumor resurgence was observed”. Moreover, the “recolonization of scratched region by hBCSCs (migration)” value with hBCSCs [2] was “completely recolonized”. The “G2/M cell cycle arrest at 22 h” value in the data set with MDA-MB-231/luc cells was “not”. The “growth of tumors originating from pancreatic CSCs” value with pancreatic CSCs is “no significant reduction of tumor growth”. Moreover, the “inhibition of tumor growth, single agent” value with ovarian hOCSC xenografts was “clearly inferior to that of TH1902”.
“Acetyl-GVRAK(docetaxel)AGVRN(Nle)FK(docetaxel)SESY (Ac-GVRAK(docetaxel)AGVRN[Nle]FK(docetaxel)SESY) [TH1902]”: the “tumor growth curve at 8.75 mg/kg TH1902 (eq. to 1/4 of docetaxel MTD)” value in the data set with hBCSC xenografts (hBCSC xenografts, weekly, FIG. 8A) is “virtual overlap between the 15 mg/kg docetaxel curve and the 8.75 mg/kg TH1902 curve”. For the same compound, the “growth of tumors originating from breast CSCs” value with hBCSC xenografts is recorded as “significant inhibition of the growth of tumors”. Besides, in data set [1], the “tumor growth during and shortly after administration” value is reported as “reduction in tumor growth”; the “cancer relapse at later time points (day 74)” value was “No residual tumor could be detected”. The “recolonization of scratched region by hBCSCs (migration)” value with hBCSCs [2] is reported as “remained virtually barren of hBCSC for at least 48 hours”. Further, the “G2/M cell cycle arrest at 22 h” value with MDA-MB-231/luc cells is given as “some G2/M cell cycle arrest being detected at 22 h”. Further, the “G2/M cell cycle arrest in the presence of CsA” value in the data set on hBCSCs [3] (10 μM CsA, 4 μM docetaxel or 2 μM TH1902) is reported as “no effect”. The “G2/M cell cycle arrest in the presence of PCC-831” value with hBCSCs [3] (10 μM inhibitor, 4 μM docetaxel or 2 μM TH1902) is “no effect”. Moreover, the “proportion of cells in G2/M phase” value with hBCSCs [3] (no efflux inhibitor, 4 μM docetaxel or 2 μM TH1902, FIG. 6C-D) is recorded as “strong increase in the proportion of cells in G2/M phase”. Besides, the “growth of tumors originating from pancreatic CSCs” value in the data set with pancreatic CSCs is recorded as “significant inhibition of the growth of tumors”. Besides, in the data set with ovarian hOCSC xenografts, the “inhibition of tumor growth, single agent” value was “much greater than that of either taxanes”. Besides, in the data set with ovarian hOCSC xenografts (plus carboplatin 40 mg/kg intraperitoneal, vs the agent alone), the “inhibition of tumor growth, combined with carboplatin” value is listed as “slightly increased”.
